Common to all, as to experiment: DTP human tumour cell line panel, 48 h
For assay [1], the system named is OVCAR-4.
Assay [2] has as its system SK-OV-3.
In assay [3] the test system is HL-60.
Assay [4] relates to HCT-15.
Assay [5] relates to U-251.
In assay [6] the test system is RXF 393.
Assay [7] has as its system K562.
Assay [8] deals with NCI-H23.
The subject of assay [9] is NCI-H522.
In assay [10] the test system is MCF7.
For assay [11], the system named is OVCAR-5.
For assay [12], the system named is CAKI-1.
The test system of assay [13] is MDA-MB-231.
For assay [14], the system named is DU-145.
Assay [15] deals with SF-268.
Assay [16] has as its system MDA-N.
Assay [17] relates to UO-31.
Assay [18] relates to SK-MEL-28.
The test system of assay [19] is NCI/ADR-RES.
Assay [20] deals with KM12.

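Assay format: 96-well plates, 48-hour exposure. At the GI50, growth is halved.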 The source made the active and inactive calls. Rule as the data show it: active = GI50 up to about 1.1 µM and inactive = higher.

Here are results for four compounds from ChEMBL document CHEMBL1201862, “PubChem BioAssay data set” (2004).

As a reminder, the GI50 is the concentration giving 50% growth inhibition. Regarding `CC1=C(O)C(O)=C(C2=C(O)C(O)=C(C)C(=O)C2=O)C(=O)C1=O`, the GI50 in assay [1] was 24.6 µM (inactive); in assay [2], 37.2 µM (inactive); in [3] it was 42.9 µM (inactive); in [4], more than 100 µM; in [5] it was 40.9 µM (inactive); in assay [6], 26.7 µM (inactive). Further, the GI50 in [7] was 45.7 µM (inactive); in assay [8] it was 40.7 µM (inactive); in assay [9], 29.3 µM (inactive); in assay [10], 45.3 µM (inactive); in assay [11], 41.6 µM (inactive); in assay [12], 40.7 µM (inactive). In addition, the GI50 was 31.8 µM (inactive) in assay [13]; 31.3 µM (inactive) in assay [14]; 56.9 µM (inactive) in assay [15]; 40.9 µM (inactive) in assay [16]; 39.1 µM (inactive) in assay [17]; 29.2 µM (inactive) in assay [18]. Also, the GI50 in [19] was 36 µM (inactive); in assay [20], 38.5 µM (inactive).
In the case of `NC1=CN2c3ccccc3N(CC(=O)N3CCOCC3)C2C=C1` (stereo not given), the GI50 was > 100 µM (inactive) in assay [1]; > 100 µM (inactive) in [2]; > 100 µM (inactive) in [3]; more than 100 µM in assay [4]; > 100 µM (inactive) in assay [5]; > 100 µM (inactive) in assay [6]. Besides, the GI50 in [7], in assay [8], in [9], in assay [10], in assay [11] and in assay [12] was > 100 µM (inactive) throughout. The GI50 in assay [13], in [14], in [15], in assay [16], in assay [17] and in assay [18] was > 100 µM (inactive) throughout. In addition, the GI50 in [19] and in assay [20] was > 100 µM (inactive) throughout.
With `O=C1CCC2(CC1CC[S+]([O-])c1ccccc1)OCCO2` (stereo not given), the GI50 in assay [1] is > 100 µM (inactive); in [2], > 100 µM (inactive); in [3], 89.7 µM (inactive); in [4], more than 100 µM; in [5], > 100 µM (inactive); in assay [6], > 100 µM (inactive). The GI50 in assay [7], in assay [8], in [9], in [10], in [11] and in assay [12] was > 100 µM (inactive) in each case. The GI50 in assay [13], in assay [14], in assay [15], in assay [16], in assay [17] and in assay [18] was > 100 µM (inactive) throughout. The GI50 in assay [19] and in assay [20] was > 100 µM (inactive) throughout.
For `C=CCN(c1cc(OCc2ccccc2)c2[nH]cc(C)c2c1)S(C)(=O)=O`, the GI50 in [1] is 34.4 µM (inactive); in [2], 37.3 µM (inactive); in [3], > 100 µM (inactive); in assay [4], more than 100 µM; in assay [5], 46.7 µM (inactive); in assay [6], 23.1 µM (inactive). Besides, the GI50 in assay [7] is > 100 µM (inactive); in assay [8], 87.1 µM (inactive); in [9], 37 µM (inactive); in assay [10], 59.7 µM (inactive); in assay [11], 79.8 µM (inactive); in assay [12] it was 61.7 µM (inactive). For the same compound, the GI50 in assay [13] was 44.6 µM (inactive); in [14], 40 µM (inactive); in assay [15], 46.7 µM (inactive); in [16], 89.7 µM (inactive); in assay [17], 41.8 µM (inactive); in assay [18], 48.8 µM (inactive). Besides, the GI50 in assay [19] was 53.1 µM (inactive); in [20], 51.4 µM (inactive).
